Test results: the NIST ThermoML archive (doi:10.1016/j.jct.2005.03.012)

Assay: excess molar enthalpy (molar enthalpy of mixing); xn = mol fraction of the nth substance listed
Conditions: Liquid

CO [methanol] + O
Conditions	excess molar enthalpy [kcal/mol]
425.1 K, 10000 kPa, x1 = 0.8	0.0323
468.38 K, 10000 kPa, x1 = 0.4	0.119
468.72 K, 8500 kPa, x1 = 0.4	0.115
469.1 K, 10000 kPa, x1 = 0.6	0.114
469.29 K, 5000 kPa, x1 = 0.4	0.104
469.31 K, 8500 kPa, x1 = 0.6	0.11
469.39 K, 5000 kPa, x1 = 0.3	0.0932
469.49 K, 5000 kPa, x1 = 0.5	0.104
469.5 K, 10000 kPa, x1 = 0.2	0.0801
469.66 K, 8500 kPa, x1 = 0.2	0.0793
469.81 K, 5000 kPa, x1 = 0.2	0.0717
469.91 K, 5000 kPa, x1 = 0.6	0.096
470.63 K, 5000 kPa, x1 = 0.7	0.0803
470.65 K, 10000 kPa, x1 = 0.4	0.122
470.78 K, 10000 kPa, x1 = 0.6	0.115
470.8 K, 10000 kPa, x1 = 0.8	0.0707
471.01 K, 8500 kPa, x1 = 0.4	0.118
471.06 K, 8500 kPa, x1 = 0.8	0.0689
471.22 K, 5000 kPa, x1 = 0.1	0.0392
471.24 K, 5000 kPa, x1 = 0.4	0.104
471.34 K, 5000 kPa, x1 = 0.8	0.057
471.36 K, 5000 kPa, x1 = 0.5	0.104
471.45 K, 5000 kPa, x1 = 0.3	0.0941
471.49 K, 8500 kPa, x1 = 0.6	0.113
471.54 K, 8500 kPa, x1 = 0.2	0.0812
471.91 K, 5000 kPa, x1 = 0.6	0.0953
472.04 K, 5000 kPa, x1 = 0.7	0.0796
472.16 K, 10000 kPa, x1 = 0.8	0.0715
472.23 K, 5000 kPa, x1 = 0.9	0.0296
472.28 K, 5000 kPa, x1 = 0.8	0.0561
472.49 K, 10000 kPa, x1 = 0.2	0.0832
473.11 K, 5000 kPa, x1 = 0.2	0.0722
473.15 K, 5000 kPa, x1 = 0.1	0.0395
473.15 K, 5000 kPa, x1 = 0.2	0.0719
473.15 K, 5000 kPa, x1 = 0.3	0.0932
473.15 K, 5000 kPa, x1 = 0.4	0.103
473.15 K, 5000 kPa, x1 = 0.5	0.103
473.15 K, 5000 kPa, x1 = 0.6	0.095
473.15 K, 5000 kPa, x1 = 0.7	0.0788
473.15 K, 5000 kPa, x1 = 0.8	0.0555
473.15 K, 5000 kPa, x1 = 0.9	0.0298
473.15 K, 8500 kPa, x1 = 0.2	0.0818
473.15 K, 8500 kPa, x1 = 0.4	0.119
473.15 K, 8500 kPa, x1 = 0.6	0.113
473.15 K, 8500 kPa, x1 = 0.8	0.0696
473.15 K, 10000 kPa, x1 = 0.2	0.0827
473.15 K, 10000 kPa, x1 = 0.4	0.124
473.15 K, 10000 kPa, x1 = 0.6	0.117
473.15 K, 10000 kPa, x1 = 0.8	0.0735
473.17 K, 5000 kPa, x1 = 0.9	0.0285
473.36 K, 5000 kPa, x1 = 0.1	0.0397
473.78 K, 8500 kPa, x1 = 0.8	0.0702
474.92 K, 5000 kPa, x1 = 0.1	0.0401
474.92 K, 5000 kPa, x1 = 0.2	0.0721
474.92 K, 5000 kPa, x1 = 0.3	0.0937
474.92 K, 5000 kPa, x1 = 0.4	0.103
474.92 K, 5000 kPa, x1 = 0.5	0.102
474.92 K, 5000 kPa, x1 = 0.6	0.0941
474.92 K, 5000 kPa, x1 = 0.7	0.0778
474.92 K, 5000 kPa, x1 = 0.8	0.0536
474.92 K, 5000 kPa, x1 = 0.9	0.0277
475.17 K, 10000 kPa, x1 = 0.2	0.0854
475.17 K, 10000 kPa, x1 = 0.4	0.126
475.17 K, 10000 kPa, x1 = 0.6	0.118
475.17 K, 10000 kPa, x1 = 0.8	0.0755
475.47 K, 8500 kPa, x1 = 0.2	0.083
475.47 K, 8500 kPa, x1 = 0.4	0.121
475.47 K, 8500 kPa, x1 = 0.6	0.115
475.47 K, 8500 kPa, x1 = 0.8	0.0705
493.71 K, 10000 kPa, x1 = 0.4	0.128
494.59 K, 10000 kPa, x1 = 0.2	0.0893
494.68 K, 10000 kPa, x1 = 0.6	0.118
495.72 K, 10000 kPa, x1 = 0.4	0.125
496.09 K, 10000 kPa, x1 = 0.2	0.0884
496.33 K, 10000 kPa, x1 = 0.8	0.0702
497.18 K, 10000 kPa, x1 = 0.6	0.116
498.15 K, 8500 kPa, x1 = 0.1	0.0443
498.15 K, 8500 kPa, x1 = 0.2	0.0795
498.15 K, 8500 kPa, x1 = 0.3	0.0979
498.15 K, 8500 kPa, x1 = 0.4	0.106
498.15 K, 8500 kPa, x1 = 0.5	0.103
498.15 K, 8500 kPa, x1 = 0.6	0.0938
498.15 K, 8500 kPa, x1 = 0.7	0.0758
498.15 K, 8500 kPa, x1 = 0.8	0.0522
498.15 K, 8500 kPa, x1 = 0.9	0.0256
498.15 K, 10000 kPa, x1 = 0.2	0.0875
498.15 K, 10000 kPa, x1 = 0.4	0.124
498.15 K, 10000 kPa, x1 = 0.6	0.114
498.15 K, 10000 kPa, x1 = 0.8	0.0689
498.93 K, 10000 kPa, x1 = 0.8	0.0687
500.09 K, 8500 kPa, x1 = 0.1	0.0446
500.09 K, 8500 kPa, x1 = 0.2	0.0768
500.09 K, 8500 kPa, x1 = 0.3	0.0941
500.09 K, 8500 kPa, x1 = 0.4	0.101
500.09 K, 8500 kPa, x1 = 0.5	0.0978
500.09 K, 8500 kPa, x1 = 0.6	0.0868
500.09 K, 8500 kPa, x1 = 0.7	0.0683
500.09 K, 8500 kPa, x1 = 0.8	0.0466
500.09 K, 8500 kPa, x1 = 0.9	0.0222
500.24 K, 10000 kPa, x1 = 0.2	0.087
500.24 K, 10000 kPa, x1 = 0.4	0.122
500.24 K, 10000 kPa, x1 = 0.6	0.112
500.24 K, 10000 kPa, x1 = 0.8	0.0679
504.64 K, 10000 kPa, x1 = 0.4	0.111
